In patent US9045493B2, “Furo[3,2-b]- and thieno[3,2-b]pyridin derivatives” (Merck Patent GmbH, priority 2012, dated 2015) one finds IC50 data, which are given here for seven compounds.

Broadly, the IC50 is the concentration at which inhibition is half-maximal.

Bounds are passed on as bounds.

In experiment [1] the test system is phospho-IRF3 @ Ser 386. Put plainly: Cell test: dose response inhibition of phospho-IRF3 @ Ser 386 in MDA-MB-468 cells. The format is cell-based. Particulars: Homo sapiens, Poly(I:C) stimulation, read-out: IC50 (reference inhibitor, phospho-IRF3 cell test). The text has this: Dose Response Inhibition of Phospho-IRF3 @ Ser 386 Cell/MDAMB468/INH/PHOS/IMAG/pIRF3
This assay has been devised in order to assess the efficacy/potency of TBK1/IKKε inhibitor compounds based on the immunocytochemical detection of nuclear localised phospho-IRF3, a target directly downstream of TBK1.
Treatment with Polyinosine-polycytidylic acid (poly(I:C), a synthetic analog of doublestranded RNA (dsRNA), a molecular pattern associated with viral infection which is recognized by Toll-like receptor 3 (TLR3) is used to induce TBK1/IKKe activity and IRF3 phosphorylation at Ser386.
• Day 1: MDA-MB-468 cells are detached with HyQ-Tase, counted, and seeded into a 384-well clear bottom TC-surface plate at density of 10,000 cells per well in a total volume of 35 ul complete medium. Alternatively cells are directly seeded from frozen vials. • Day 2: Cells are pre-treated with inhibitor compounds for 1 h prior to Poly(I:C) stimulation. After 2 h of incubation with Poly(I:C), cells are fixed in (para)formaldehyde (PFA) and permeabilized with methanol (MeOH). The cells are then blocked and incubated with an anti-pIRF3 antibody at 4° C. overnight. • Day 3: The primary antibody is washed off, an AlexaFluor488-conjugated secondary is added, cells are counterstained with propidium iodide followed by image acquisition on IMX Ultra high content reader.

Experiment [2] addresses T1, TANK binding kinase (TBK1) (Homo sapiens, UniProt Q9UHD2).
T1 sequence (Q9UHD2 1-729): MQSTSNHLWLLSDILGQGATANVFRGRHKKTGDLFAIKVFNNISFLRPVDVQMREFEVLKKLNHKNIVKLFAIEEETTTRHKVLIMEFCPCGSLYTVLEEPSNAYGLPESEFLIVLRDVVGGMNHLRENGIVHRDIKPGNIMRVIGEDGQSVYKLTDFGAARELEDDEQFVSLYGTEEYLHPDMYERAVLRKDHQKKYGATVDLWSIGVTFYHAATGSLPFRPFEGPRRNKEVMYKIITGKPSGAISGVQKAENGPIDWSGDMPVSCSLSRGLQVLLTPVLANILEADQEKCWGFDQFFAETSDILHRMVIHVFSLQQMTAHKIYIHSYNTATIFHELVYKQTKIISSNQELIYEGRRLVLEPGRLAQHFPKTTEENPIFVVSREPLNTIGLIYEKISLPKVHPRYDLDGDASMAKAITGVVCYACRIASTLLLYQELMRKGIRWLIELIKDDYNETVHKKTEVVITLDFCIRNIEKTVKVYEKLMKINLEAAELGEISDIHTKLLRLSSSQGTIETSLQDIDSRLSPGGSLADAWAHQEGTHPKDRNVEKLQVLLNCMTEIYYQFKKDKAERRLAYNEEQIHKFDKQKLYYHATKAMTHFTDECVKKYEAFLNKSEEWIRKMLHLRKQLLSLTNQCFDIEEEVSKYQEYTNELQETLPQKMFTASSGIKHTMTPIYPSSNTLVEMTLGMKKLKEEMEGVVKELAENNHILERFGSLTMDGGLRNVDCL
As to the kind of experiment: TBK1 enzyme assay (384-well Flashplate kinase assay). The class given is biochemical. To be noted: 10 μM ATP, 120 Min at 30° C. The procedure, abridged: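 Radiometric Flashplate assay: 0.6 nM TBK1, 800 nM biotinylated MELK-derived peptide and 10 μM ATP with 33P-ATP, 120 min at 30 °C in MOPS/Mg-acetate buffer pH 7.5. Stopped with EDTA; nonspecific signal defined with 100 nM staurosporine; IC50 from counted radioactivity.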

Experiment [3] concerns the target T2, IKKε (Homo sapiens, UniProt Q14164).
T2 sequence (Q14164 1-716): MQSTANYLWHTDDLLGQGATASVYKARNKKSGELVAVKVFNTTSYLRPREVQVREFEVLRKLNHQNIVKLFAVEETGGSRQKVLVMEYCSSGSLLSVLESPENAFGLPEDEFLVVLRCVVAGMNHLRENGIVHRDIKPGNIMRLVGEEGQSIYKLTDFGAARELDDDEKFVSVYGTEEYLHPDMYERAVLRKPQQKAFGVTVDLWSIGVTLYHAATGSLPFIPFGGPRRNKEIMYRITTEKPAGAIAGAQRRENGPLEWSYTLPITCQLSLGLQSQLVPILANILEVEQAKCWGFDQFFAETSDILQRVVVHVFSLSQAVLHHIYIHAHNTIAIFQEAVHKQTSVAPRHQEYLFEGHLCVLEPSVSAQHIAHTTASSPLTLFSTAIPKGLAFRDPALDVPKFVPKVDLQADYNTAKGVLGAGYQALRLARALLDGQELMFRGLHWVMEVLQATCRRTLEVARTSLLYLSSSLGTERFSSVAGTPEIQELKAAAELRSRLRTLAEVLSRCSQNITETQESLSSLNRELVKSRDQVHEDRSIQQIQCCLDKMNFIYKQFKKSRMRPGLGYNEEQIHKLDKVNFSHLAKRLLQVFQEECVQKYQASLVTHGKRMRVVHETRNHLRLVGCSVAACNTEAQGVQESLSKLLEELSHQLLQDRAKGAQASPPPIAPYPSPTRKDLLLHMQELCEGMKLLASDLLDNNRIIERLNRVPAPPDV
Put plainly: IKKε kinase assay (384-well Flashplate). The class given is biochemical. Particulars: 10 μM ATP, 2 hours at 30° C.; read-out: IKKε enzyme assay IC50. The essentials: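 1 nM IKKε with 800 nM biotinylated IκBα(19-42) peptide and 10 μM ATP spiked with ^33P-ATP, 2 h at 30 °C in MOPS buffer pH 7.5. EDTA stop, Flashplate capture, washes, then radioactivity counted; IC50 derived.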

On to `O=C(NCCCNc1nc(Nc2cccc(NC(=O)N3CCCC3)c2)ncc1I)c1cccs1` [BX-795], for which the IC50 in experiment [1] was 0.2 to 0.8 µM.

In the case of `COc1cc(C(=O)N(C)CCO)ccc1-c1cc2nccc(-c3ccc(OC4CCOCC4)c(C#N)c3)c2o1` [Compound A115], the half-inhibitory concentration (IC50) in experiment [2] and in experiment [3] was < 0.3 µM each time.

For the compound `COc1cc(C(=O)N2CCC(O)CC2)ccc1-c1cc2nccc(-c3ccc(OC4CCOCC4)c(C#N)c3)c2o1` [Compound A116], the IC50 in experiment [2] and in experiment [3] was < 0.3 µM throughout.

For `COc1cc(C(=O)N(C)C)ccc1-c1cc2nccc(-c3ccc(OC4CCOCC4)c(C#N)c3)c2o1` [Compound A117], the 50% inhibitory concentration (IC50) in experiment [2] and in experiment [3] was < 0.3 µM in each case.

On to `COc1cc(C(=O)N[C@H]2CCCNC2)ccc1-c1cc2nccc(-c3ccc(OC4CCOCC4)c(C#N)c3)c2o1` [Compound A118], for which the half-maximal inhibitory concentration (IC50) in experiment [2] and in experiment [3] was < 0.3 µM in each case.

Turning to `COCCn1cc(-c2cc3nccc(-c4ccc(OC5CCOCC5)c(C#N)c4)c3s2)cn1` [Compound A119], the IC50 in experiment [2] and in experiment [3] was < 0.3 µM throughout.

As to `COc1cc(C(=O)N[C@@H]2CCCNC2)ccc1-c1cc2nccc(-c3ccc(OC4CCOCC4)c(C#N)c3)c2o1` [Compound A120], the IC50 in experiment [2] and in experiment [3] was < 0.3 µM in each case.
